In US7977061B2, “Ex vivo method for determining potential GLP-2 receptor modulators” (NPS Pharmaceuticals Inc., priority 2005, dated 2011):
“Also recorded” adds a separate entry of the source. Where two headings read alike, the source gives them in different places.

Biological target: T1, GLP-2R (Rattus norvegicus, UniProt Q9Z0W0)
T1 construct: the described assay enables native GLP-2R characterization by the direct application of GLP-2 to intestinal tissue segments ex vivo; from tissue; host or cells: colon segments of male Sprague-Dawley rats
T1 sequence (Q9Z0W0 1-550): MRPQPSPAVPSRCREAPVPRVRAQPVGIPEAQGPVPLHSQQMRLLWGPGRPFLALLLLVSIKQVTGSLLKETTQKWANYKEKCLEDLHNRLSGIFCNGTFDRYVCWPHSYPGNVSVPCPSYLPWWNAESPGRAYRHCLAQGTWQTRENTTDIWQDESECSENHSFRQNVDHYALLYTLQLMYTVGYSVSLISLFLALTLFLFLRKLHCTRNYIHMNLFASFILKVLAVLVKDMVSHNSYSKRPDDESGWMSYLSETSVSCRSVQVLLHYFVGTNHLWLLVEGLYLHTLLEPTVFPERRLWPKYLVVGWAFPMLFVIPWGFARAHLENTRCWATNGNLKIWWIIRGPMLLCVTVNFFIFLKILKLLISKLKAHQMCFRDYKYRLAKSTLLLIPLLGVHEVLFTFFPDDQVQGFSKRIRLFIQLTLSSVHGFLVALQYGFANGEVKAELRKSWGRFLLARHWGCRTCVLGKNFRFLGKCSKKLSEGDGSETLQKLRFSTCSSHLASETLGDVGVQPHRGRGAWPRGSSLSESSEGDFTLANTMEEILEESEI
Experiment: Ex vivo organ bath assay of spontaneous contractility of rat colon segments
Settings: for effect on spontaneous colon contractility: substance alone; for IC50: rat colon segments
Description: Segments of colon from male Sprague Dawley rats were suspended in organ bath chambers containing Krebs' solution and maintained at 37° C. with 95% O2 and 5% CO2. Basal tone, contractility rate and peak height were used to measure the properties of spontaneous and ligand-mediated colonic contractions. Segments were initially loaded to a tension of 2 g and allowed to equilibrate for 60 minutes. During this period, segments were repeatedly washed every 10 minutes. [gly2]GLP-2 (“Teduglutide”, a GLP-2 agonist) and GLP-2 analogues were subsequently incubated with each tissue segment for 5 to 10 minutes. The tissues were allowed to re-equilibrate with repeated washes following each experiment.
Male Sprague-Dawley (SD) rats (Charles River Canada, Quebec), weighing 200-250 g, were used for these studies. The animals were housed on contact bedding and kept with free access to food (Purina Rodent Diet) and water in a facility with regulated temperature and humidity, under an alternate 12-hour light/dark cycle. Animals were acclimatized for 3˜5 days prior to harvesting of tissues.
Rats were euthanized by decapitation. The entire intestine was quickly removed and placed in a Petri dish containing a Sylgard layer and 37° C. Krebs' solution bubbled with 95% O2 and 5% CO2. The Krebs' solution (pH 7.4) contained 118.1 mM NaCl, 25 mM NaHCO3, 4.7 mM KCl, 1.2 mM KH2PO4, 1.2 mM MgSO4.7H2O, 2.5 mM CaCl2.2H2O and 11 mM glucose. The colon was isolated, cleaned of superficial fat and mesentery and sectioned into eight 1-cm long segments. The lumen was cleaned by carefully flushing each segment with Krebs' solution using plastic transfer pipets. Segments were transferred to a separate Petri dish containing fresh Krebs' solution and suture threads were tied to both ends of each segment. Tissues were suspended longitudinally using surgical suture, one end attached to the transducer on the top and the other to the tissue holder at the bottom of 20 ml organ bath chambers containing Krebs' solution, maintained at 37° C. with 95% O2 and 5% CO2. Isometric tensions were continuously measured using calibrated force displacement transducers and data was collected and processed by the MP100WSW system with AcqKnowledge software
Segments of colon were initially loaded to a tension of 2 g and allowed to equilibrate for a 60 min period. During this period, segments were washed with Krebs' solution at 10 minutes intervals. When the tissues obtained regular and stable contraction patterns, GLP-2 agonist response experiments were conducted by the addition of eight concentrations of compound into eight separate organ baths for 5-10 minutes. Routinely, one-hour washes were interspersed between repeat applications of compounds to allow for recovery. The effect of GLP-2(3-33) on GLP-2 agonist analogues were conducted by pre-incubating colon segments with 1 or 10 uM GLP-2(3-33) for 5-10 minutes. Then agonist responses were measured at various concentrations as described above.
Tension was measured by changes in peak height. Data were calculated and expressed as percentage response relative to the basal level (prior to the experiment). Graphs and IC50 determinations were plotted by the percentage response in GraphPad Prism (v 3.02). In order to assess the significance of the effect of GLP-2 and Teduglutide paired t-tests were conducted on the Log [IC50] values.

IC50 (agonist alone, read-out: estimated IC50, inhibition of colon contractility) [µM]	IC50 (pre-incubated with 1 μM GLP-2(3-33), read-out: estimated IC50, inhibition of colon contractility in the presence of GLP-2(3-33)) [µM]	IC50 (pre-incubated with 10 μM GLP-2(3-33), read-out: estimated IC50, inhibition of colon contractility in the presence of GLP-2(3-33)) [µM]	Compound	effect on spontaneous colon contractility (rat colon)	effect on GLP-2(1-33)-induced inhibition of colon contractility (rat colon, 1 μM and 10 μM test substance, agonist GLP-2(1-33))	effect on teduglutide-induced inhibition of rat colon contractility (rat colon, 1 μM and 10 μM test substance, agonist teduglutide)
			CC[C@H](C)[C@H](NC(=O)[C@H](Cc1ccccc1)NC(=O)[C@H](CC(=O)O)NC(=O)[C@H](CCCNC(=N)N)NC(=O)[C@H](C)NC(=O)[C@H](C)NC(=O)[C@H](CC(C)C)NC(=O)[C@H](CC(N)=O)NC(=O)[C@H](CC(=O)O)NC(=O)[C@H](CC(C)C)NC(=O)[C@@H](NC(=O)[C@@H](NC(=O)[C@H](CC(N)=O)NC(=O)[C@H](CCSC)NC(=O)[C@H](CCC(=O)O)NC(=O)[C@H](CC(=O)O)NC(=O)[C@H](CO)NC(=O)[C@H](Cc1ccccc1)NC(=O)[C@H](CO)NC(=O)CNC(=O)[C@H](CC(=O)O)NC(=O)[C@H](C)NC(=O)[C@@H](N)Cc1c[nH]cn1)[C@@H](C)O)[C@@H](C)CC)C(=O)N[C@@H](CC(N)=O)C(=O)N[C@@H](Cc1c[nH]c2ccccc12)C(=O)N[C@@H](CC(C)C)C(=O)N[C@H](C(=O)N[C@@H](CCC(N)=O)C(=O)N[C@H](C(=O)N[C@@H](CCCCN)C(=O)N[C@H](C(=O)N[C@H](C(=O)N[C@@H](CC(=O)O)C(=O)O)[C@@H](C)O)[C@@H](C)CC)[C@@H](C)O)[C@@H](C)CC [GLP-2(1-33)]	inhibits spontaneous colon contractility in a concentration-dependent manner		
			GLP-2(3-33) (DGSFSDEMNTILDNLAARDFINWLIQTKITD; Glucagon-like peptide 2; UniProt P01275 148-178, looked up, fragment) [a GLP-2 antagonist/partial agonist]	no effect alone	blocked GLP-2(1-33)-induced inhibition of colon contractility; also recorded: blocked the inhibitory effects; also recorded: blocks the effect of GLP-2(1-33) in a concentration-dependent manner	blocked teduglutide-induced inhibition of colon contractility; also recorded: blocked the inhibitory effects
0.0049 ± 0.0019	0.0347 ± 0.0151	0.0599 ± 0.0119	CC[C@H](C)[C@H](NC(=O)[C@H](Cc1ccccc1)NC(=O)[C@H](CC(=O)O)NC(=O)[C@H](CCCNC(=N)N)NC(=O)[C@H](C)NC(=O)[C@H](C)NC(=O)[C@H](CC(C)C)NC(=O)[C@H](CC(N)=O)NC(=O)[C@H](CC(=O)O)NC(=O)[C@H](CC(C)C)NC(=O)[C@@H](NC(=O)[C@@H](NC(=O)[C@H](CC(N)=O)NC(=O)[C@H](CCSC)NC(=O)[C@H](CCC(=O)O)NC(=O)[C@H](CC(=O)O)NC(=O)[C@H](CO)NC(=O)[C@H](Cc1ccccc1)NC(=O)[C@H](CO)NC(=O)CNC(=O)[C@H](CC(=O)O)NC(=O)CNC(=O)[C@@H](N)Cc1c[nH]cn1)[C@@H](C)O)[C@@H](C)CC)C(=O)N[C@@H](CC(N)=O)C(=O)N[C@@H](Cc1c[nH]c2ccccc12)C(=O)N[C@@H](CC(C)C)C(=O)N[C@H](C(=O)N[C@@H](CCC(N)=O)C(=O)N[C@H](C(=O)N[C@@H](CCCCN)C(=O)N[C@H](C(=O)N[C@H](C(=O)N[C@@H](CC(=O)O)C(=O)O)[C@@H](C)O)[C@@H](C)CC)[C@@H](C)O)[C@@H](C)CC [Teduglutide, [gly2]GLP-2]	inhibited spontaneous colon contractility in a concentration-dependent manner		
